Assay results as given in patent US20230398130A1, “METHODS AND COMPOSITIONS FOR DIFFERENTIATING STEM CELLS” (Massachusetts Institute of Technology, priority 2020, published 2023).

What was measured:
ISC-enriched organoids [1] = experiment: Primary screen, 384-well 2.5-D organoid differentiation (ENR+CD, 6 days, Target Selective Inhibitor Library, vs whole-plate median): ATP (CellTiter-Glo 3D, CTG); conditions: primary screen; for Dose.FC.CTG (log 2 fold change): vs plate median
ISC-enriched organoids [2] = experiment: Primary screen, 384-well 2.5-D organoid differentiation (ENR+CD, 6 days): basal lysozyme secretion (LYZ.NS); assay type: cell-based, murine; conditions: primary screen; for Dose.FC.LYZ.NS (log 2 fold change): vs plate median
Text: (§1) High-throughput screening.

ISC-enriched organoids [3] = experiment: Primary screen, 384-well 2.5-D organoid differentiation (ENR+CD, 6 days): carbachol-induced lysozyme secretion (LYZ.S); assay type: cell-based, murine; conditions: primary screen, vs plate median
Text: as §1

ISC-enriched organoids [4] = experiment: Secondary (validation) screen, 384-well 2.5-D, ENR+CD 6 days, n=8 wells, vs ENR+CD+DMSO control: ATP (CTG); assay type: cell-based, murine; set-up: key to Dose.FC.CTG: log10 fold change vs median of vehicle control wells
Description: (§2) Drugs were tested at a narrowed dose range around each treatment's identified optimal dose from the primary screen (4× below, 2× above and below).
as §1
(§3) Secondary lysozyme secretion assay screen. Confirmatory secondary screening with primary hits was performed using the above 384-well plate method. The screen was conducted with 4-plate replicates with a base media of ENR+CD. Media was supplemented with compound at day 0 and day 3 (n=8 well replicates per dose) at four different doses: two-fold above, two-fold below, and four-fold below the optimal final dose for each respective treatment. Additionally, each plate carried a large number of ENR+DMSO or ENR+CD+DMSO (vehicle) control wells (n=100 for ATP, and n=25 for LYZ.NS and LYZ.S) for robust normalization. ATP, non-stimulated lysozyme activity and CCh-stimulated lysozyme activity was again measured and the collected data was again processed in a custom R-script, per primary screen with slight modification. Values were log10 transformed, and a plate-wise FC was calculated for each well based on the median value of ENR+CD+DMSO (vehicle) control wells to normalize plate to plate variability.

ISC-enriched organoids [5] = experiment: Secondary (validation) screen, 384-well 2.5-D, ENR+CD 6 days, n=8 wells, vs ENR+CD+DMSO control: carbachol-induced lysozyme secretion (LYZ.S); assay type: cell-based, murine
Description: as §2, §1, §3

ISC-enriched organoids [6] = experiment: Secondary (validation) screen, 384-well 2.5-D, ENR+CD 6 days, n=8 wells, vs ENR+CD+DMSO control: basal lysozyme secretion (LYZ.NS); assay type: cell-based, murine; set-up: key to Dose.FC.LYZ.NS: log10 fold change vs median of vehicle control wells
Description: as §2, §1, §3

NC(=O)c1ccc(-c2nc(-c3ccccn3)c(-c3ccc4c(c3)OCO4)[nH]2)cc1 [SB431542]
Z.CTG (standard z score) (ISC-enriched organoids [1]; Dose 0.08 uM): 0.907 | Dose.FC.CTG (log 2 fold change) (ISC-enriched organoids [1]; Dose 0.08 uM): 0.380 | Z.CTG (standard z score) (ISC-enriched organoids [1]; Dose 0.40 uM): 1.130 | Dose.FC.CTG (log 2 fold change) (ISC-enriched organoids [1]; Dose 0.40 uM): 0.473 | Z.CTG (standard z score) (ISC-enriched organoids [1]; Dose 2.00 uM): 0.754 | Dose.FC.CTG (log 2 fold change) (ISC-enriched organoids [1]; Dose 2.00 uM): 0.316 | Z.CTG (standard z score) (ISC-enriched organoids [1]; Dose 10.00 uM): 0.370 | Dose.FC.CTG (log 2 fold change) (ISC-enriched organoids [1]; Dose 10.00 uM): 0.155 | Z.LYZ.NS (standard z score) (ISC-enriched organoids [2]; Dose 0.08 uM): 1.225 | Dose.FC.LYZ.NS (log 2 fold change) (ISC-enriched organoids [2]; Dose 0.08 uM): 0.141 | Z.LYZ.NS (standard z score) (ISC-enriched organoids [2]; Dose 0.40 uM): 1.514 | Dose.FC.LYZ.NS (log 2 fold change) (ISC-enriched organoids [2]; Dose 0.40 uM): 0.174 | Z.LYZ.NS (standard z score) (ISC-enriched organoids [2]; Dose 2.00 uM): 1.632 | Dose.FC.LYZ.NS (log 2 fold change) (ISC-enriched organoids [2]; Dose 2.00 uM): 0.187 | Z.LYZ.NS (standard z score) (ISC-enriched organoids [2]; Dose 10.00 uM): 0.346 | Dose.FC.LYZ.NS (log 2 fold change) (ISC-enriched organoids [2]; Dose 10.00 uM): 0.040 | Dose.FC.LYZ.S (log 2 fold change) (ISC-enriched organoids [3]; Dose 0.08 uM): 0.135 | Dose.FC.LYZ.S (log 2 fold change) (ISC-enriched organoids [3]; Dose 0.40 uM): 0.309 | Dose.FC.LYZ.S (log 2 fold change) (ISC-enriched organoids [3]; Dose 2.00 uM): 0.223 | Dose.FC.LYZ.S (log 2 fold change) (ISC-enriched organoids [3]; Dose 10.00 uM): 0.126 | Dose.FC.CTG (ISC-enriched organoids [4]; Dose 0.06 uM): 0.160 | Z.CTG (ISC-enriched organoids [4]; Dose 0.06 uM): 1.439 | repSSMD.CTG (ISC-enriched organoids [4]; Dose 0.06 uM): 0.654 | Dose.FC.CTG (ISC-enriched organoids [4]; Dose 0.24 uM): 0.023 | Z.CTG (ISC-enriched organoids [4]; Dose 0.24 uM): 0.206 | repSSMD.CTG (ISC-enriched organoids [4]; Dose 0.24 uM): 0.141 | Dose.FC.CTG (ISC-enriched organoids [4]; Dose 0.48 uM): 0.083 | Z.CTG (ISC-enriched organoids [4]; Dose 0.48 uM): 0.752 | repSSMD.CTG (ISC-enriched organoids [4]; Dose 0.48 uM): 0.527 | Dose.FC.CTG (ISC-enriched organoids [4]; Dose […]): 0.120 | Z.LYZ.S (ISC-enriched organoids [5]; Dose 0.06 uM): 0.514 | log10 fold change in stimulated lysozyme secretion vs vehicle control (ISC-enriched organoids [5]; Dose 0.06 uM): 0.067 | repSSMD.LYZ.S (ISC-enriched organoids [5]; Dose 0.06 uM): 0.855 | Z.LYZ.S (ISC-enriched organoids [5]; Dose 0.24 uM): 0.211 | log10 fold change in stimulated lysozyme secretion vs vehicle control (ISC-enriched organoids [5]; Dose 0.24 uM): 0.027 | repSSMD.LYZ.S (ISC-enriched organoids [5]; Dose 0.24 uM): 0.301 | Z.LYZ.S (ISC-enriched organoids [5]; Dose 0.48 uM): −0.387 | log10 fold change in stimulated lysozyme secretion vs vehicle control (ISC-enriched organoids [5]; Dose 0.48 uM): −0.050 | repSSMD.LYZ.S (ISC-enriched organoids [5]; Dose 0.48 uM): −0.449 | log10 fold change in stimulated lysozyme secretion vs vehicle control (ISC-enriched organoids [5]; Dose […]): 0.072 | Dose.FC.LYZ.NS (ISC-enriched organoids [6]; Dose 0.06 uM): 0.089 | Z.LYZ.NS (ISC-enriched organoids [6]; Dose 0.06 uM): 0.709 | repSSMD.LYZ.NS (ISC-enriched organoids [6]; Dose 0.06 uM): 1.073 | Dose.FC.LYZ.NS (ISC-enriched organoids [6]; Dose 0.24 uM): 0.105 | Z.LYZ.NS (ISC-enriched organoids [6]; Dose 0.24 uM): 0.838 | repSSMD.LYZ.NS (ISC-enriched organoids [6]; Dose 0.24 uM): 0.830 | Dose.FC.LYZ.NS (ISC-enriched organoids [6]; Dose 0.48 uM): −0.016 | Z.LYZ.NS (ISC-enriched organoids [6]; Dose 0.48 uM): −0.128 | repSSMD.LYZ.NS (ISC-enriched organoids [6]; Dose 0.48 uM): −0.149 | Dose.FC.LYZ.NS (ISC-enriched organoids [6]; Dose […]): 0.116
